Measured values from ChEMBL document CHEMBL1201862, “PubChem BioAssay data set” (2004).
Calls of active or inactive are those of the source.

Legend:
[1] = biological target: Voltage-dependent T-type calcium channel subunit alpha-1H (Homo sapiens, UniProt O95180); type: functional;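 further: channel activity triggered by adding a high calcium stimulation buffer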
Caspase-3 [2] = biological target: T1, Caspase-3 (Homo sapiens, UniProt P42574); type: functional
T1 sequence (P42574 whole entry): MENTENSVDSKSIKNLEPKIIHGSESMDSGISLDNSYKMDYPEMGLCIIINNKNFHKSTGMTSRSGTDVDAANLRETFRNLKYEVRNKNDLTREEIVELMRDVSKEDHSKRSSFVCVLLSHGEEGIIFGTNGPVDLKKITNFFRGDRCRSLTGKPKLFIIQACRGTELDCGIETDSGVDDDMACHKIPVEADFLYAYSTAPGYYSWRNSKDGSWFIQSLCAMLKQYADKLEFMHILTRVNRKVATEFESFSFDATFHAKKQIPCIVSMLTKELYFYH

[3] = biological target: T2, Sentrin-specific protease 7 (Homo sapiens, UniProt Q9BQF6); type: functional;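 further: Luminescence-based dose-response confirmation of ultra-high-throughput screening hits, measuring inhibition of SENP7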
T2 sequence (Q9BQF6 whole entry): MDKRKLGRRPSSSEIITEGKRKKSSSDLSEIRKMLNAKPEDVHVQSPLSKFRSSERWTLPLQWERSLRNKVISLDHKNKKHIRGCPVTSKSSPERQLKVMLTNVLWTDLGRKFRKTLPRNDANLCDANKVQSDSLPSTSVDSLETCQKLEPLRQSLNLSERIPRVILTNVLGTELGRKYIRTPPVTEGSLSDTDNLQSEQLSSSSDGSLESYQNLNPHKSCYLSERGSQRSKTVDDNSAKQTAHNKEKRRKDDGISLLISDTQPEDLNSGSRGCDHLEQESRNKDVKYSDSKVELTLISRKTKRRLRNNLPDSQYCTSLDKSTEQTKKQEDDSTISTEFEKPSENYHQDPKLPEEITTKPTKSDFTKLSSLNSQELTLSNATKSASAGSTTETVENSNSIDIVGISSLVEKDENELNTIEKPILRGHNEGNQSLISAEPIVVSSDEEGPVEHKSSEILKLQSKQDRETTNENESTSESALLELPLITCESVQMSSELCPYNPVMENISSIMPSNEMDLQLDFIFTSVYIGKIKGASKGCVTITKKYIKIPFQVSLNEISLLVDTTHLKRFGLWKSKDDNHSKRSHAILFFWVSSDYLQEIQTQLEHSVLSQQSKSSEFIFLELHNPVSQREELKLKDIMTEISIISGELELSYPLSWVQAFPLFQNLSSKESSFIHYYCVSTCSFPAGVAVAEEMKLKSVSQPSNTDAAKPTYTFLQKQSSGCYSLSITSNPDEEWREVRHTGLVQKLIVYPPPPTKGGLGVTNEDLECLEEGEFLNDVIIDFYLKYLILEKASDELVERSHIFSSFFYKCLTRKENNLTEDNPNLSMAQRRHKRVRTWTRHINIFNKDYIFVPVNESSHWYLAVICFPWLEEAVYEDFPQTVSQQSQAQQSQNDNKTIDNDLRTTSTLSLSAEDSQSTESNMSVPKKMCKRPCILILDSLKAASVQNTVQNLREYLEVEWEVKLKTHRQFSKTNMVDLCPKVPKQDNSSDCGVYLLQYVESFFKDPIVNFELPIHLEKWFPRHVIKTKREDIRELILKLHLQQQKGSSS

[4] = biological target: T3, Sentrin-specific protease 6 (Homo sapiens, UniProt Q9GZR1); type: functional
T3 sequence (Q9GZR1 whole entry): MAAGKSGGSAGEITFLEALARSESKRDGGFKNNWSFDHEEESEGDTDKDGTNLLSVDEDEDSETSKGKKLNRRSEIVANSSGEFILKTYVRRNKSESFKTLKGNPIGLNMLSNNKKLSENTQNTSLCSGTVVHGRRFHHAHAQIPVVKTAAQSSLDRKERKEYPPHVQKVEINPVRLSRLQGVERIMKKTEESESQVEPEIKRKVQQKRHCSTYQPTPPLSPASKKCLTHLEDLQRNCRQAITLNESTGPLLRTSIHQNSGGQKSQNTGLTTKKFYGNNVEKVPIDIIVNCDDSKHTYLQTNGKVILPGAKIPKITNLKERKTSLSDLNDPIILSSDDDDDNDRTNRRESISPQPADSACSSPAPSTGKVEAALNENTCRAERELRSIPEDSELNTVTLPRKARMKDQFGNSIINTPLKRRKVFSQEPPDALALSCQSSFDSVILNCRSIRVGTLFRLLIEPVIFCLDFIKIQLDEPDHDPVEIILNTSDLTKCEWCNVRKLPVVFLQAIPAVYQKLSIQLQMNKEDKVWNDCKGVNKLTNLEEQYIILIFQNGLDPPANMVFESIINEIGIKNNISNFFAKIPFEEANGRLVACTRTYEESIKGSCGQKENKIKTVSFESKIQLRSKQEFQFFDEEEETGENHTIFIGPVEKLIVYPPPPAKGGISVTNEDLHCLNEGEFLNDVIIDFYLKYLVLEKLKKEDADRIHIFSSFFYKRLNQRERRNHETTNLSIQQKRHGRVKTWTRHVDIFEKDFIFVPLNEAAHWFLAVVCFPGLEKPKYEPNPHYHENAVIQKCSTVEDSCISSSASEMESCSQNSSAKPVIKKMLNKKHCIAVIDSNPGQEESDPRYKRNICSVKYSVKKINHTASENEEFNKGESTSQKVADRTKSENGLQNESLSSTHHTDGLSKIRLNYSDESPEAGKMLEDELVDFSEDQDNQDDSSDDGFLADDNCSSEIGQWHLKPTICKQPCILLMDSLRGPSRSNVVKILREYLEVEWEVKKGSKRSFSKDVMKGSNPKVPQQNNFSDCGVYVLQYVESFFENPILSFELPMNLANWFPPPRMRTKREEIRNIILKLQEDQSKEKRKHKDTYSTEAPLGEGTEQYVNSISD

[5] = biological target: T4, Sentrin-specific protease 8 (Homo sapiens, UniProt Q96LD8); type: functional;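 further: luminescence read-out of SENP8 inhibition, dose-response confirmation following an ultra-high-throughput screen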
T4 sequence (Q96LD8 whole entry): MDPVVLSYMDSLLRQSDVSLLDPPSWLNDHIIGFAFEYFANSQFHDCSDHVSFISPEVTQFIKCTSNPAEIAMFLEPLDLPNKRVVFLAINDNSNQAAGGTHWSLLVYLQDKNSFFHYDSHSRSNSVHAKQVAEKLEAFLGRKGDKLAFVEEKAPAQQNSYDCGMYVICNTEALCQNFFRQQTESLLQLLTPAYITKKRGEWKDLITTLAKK

[6] = biological target: T4, Sentrin-specific protease 8; assay: inhibition of human SENP8 cleavage activity – biochemical, luminescence, SAR follow-up (AID 504501); type: functional
Caspase-3 [7] = biological target: T1, Caspase-3; assay: SAR Analysis of small molecule inhibitors of Sentrin-specific proteases (SENPs) using a Caspase-3 Selectivity assay. [Related pubchem assays (depositor defined):AID2540, AID2599, AID434973, AID489001]; type: functional
[8] = biological target: T3, Sentrin-specific protease 6; assay: SAR Analysis of small molecule inhibitors of Sentrin-specific protease 6 (SENP6) using a Luminescent assay. [Related pubchem assays (depositor defined):AID2582, AID2599]; type: functional
[9] = biological target: T2, Sentrin-specific protease 7; assay: inhibition of human SENP7 cleavage activity – biochemical, luminescence, SAR follow-up (AID 504497); type: functional
HeLa = assay: ATP-based viability loss in HeLa cells – cell-based, CellTiter-Glo luminescence, cherry-pick samples, cytotoxicity control for MITF activator project, dose response (AID 540259); type: functional; conditions: Homo sapiens
CHO-K1 = assay: (§1) Counterscreen for antagonists of the orexin 1 receptor (OX1R; HCRTR1): Homogeneous time resolved fluorescence (HTRF)-based cell-based dose response assay to identify antagonists of the parental CHO-K1 cell line. [Related pubchem assays (depositor defined):AID434989, AID435008, AID463079, AID485270, AID492963, AID492964, AID492965, AID493232, AID504699, AID504701]; type: functional; conditions: Cricetulus griseus
[10] = as §1, with “Fluorescence-based” for “Homogeneous time resolved fluorescence (HTRF)-based”, “cell-based high throughput” for “cell-based”, “CHO” for “CHO-K1”; type: functional
[11] = biological target: T5, Orexin/Hypocretin receptor type 1 (Homo sapiens, UniProt O43613); assay: Homogeneous Time Resolved Fluorescence (HTRF)-based cell-based high throughput dose response assay for antagonists of the orexin 1 receptor (OX1R; HCRTR1). [Related pubchem assays (depositor defined):AID434989, AID435008, AID463079, AID485270, AID492963, AID492964, AID492965, AID493232, AID504717, AID504718]; type: functional
T5 sequence (O43613 whole entry): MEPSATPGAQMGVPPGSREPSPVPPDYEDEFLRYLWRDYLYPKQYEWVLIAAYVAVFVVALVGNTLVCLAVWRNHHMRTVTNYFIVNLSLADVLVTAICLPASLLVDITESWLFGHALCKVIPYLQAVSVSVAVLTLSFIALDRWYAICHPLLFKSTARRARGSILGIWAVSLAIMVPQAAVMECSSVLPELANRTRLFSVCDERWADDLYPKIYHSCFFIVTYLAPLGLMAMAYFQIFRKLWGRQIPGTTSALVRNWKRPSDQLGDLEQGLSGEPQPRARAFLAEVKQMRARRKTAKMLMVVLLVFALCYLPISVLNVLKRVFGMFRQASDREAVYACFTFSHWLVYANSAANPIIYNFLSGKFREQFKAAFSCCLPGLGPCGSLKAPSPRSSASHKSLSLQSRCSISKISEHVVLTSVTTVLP

[12] = biological target: T5, Orexin/Hypocretin receptor type 1; assay: Fluorescence-based cell-based high throughput dose response assay for antagonists of the orexin 1 receptor (OX1R; HCRTR1). [Related pubchem assays (depositor defined):AID434989, AID435008, AID463079, AID485270, AID492963, AID492964, AID492965, AID493232, AID504717, AID504718]; type: functional
Orexin receptor type 2 [13] = biological target: T6, Orexin receptor type 2 (Homo sapiens, UniProt O43614); assay: Counterscreen assay for antagonists of the orexin 1 receptor (OX1R; HCRTR1): Fluorescence-based cell-based dose response assay for antagonists of the orexin 2 receptor (OX2R; HCRTR2), run by assay provider.; type: functional
T6 sequence (O43614 whole entry): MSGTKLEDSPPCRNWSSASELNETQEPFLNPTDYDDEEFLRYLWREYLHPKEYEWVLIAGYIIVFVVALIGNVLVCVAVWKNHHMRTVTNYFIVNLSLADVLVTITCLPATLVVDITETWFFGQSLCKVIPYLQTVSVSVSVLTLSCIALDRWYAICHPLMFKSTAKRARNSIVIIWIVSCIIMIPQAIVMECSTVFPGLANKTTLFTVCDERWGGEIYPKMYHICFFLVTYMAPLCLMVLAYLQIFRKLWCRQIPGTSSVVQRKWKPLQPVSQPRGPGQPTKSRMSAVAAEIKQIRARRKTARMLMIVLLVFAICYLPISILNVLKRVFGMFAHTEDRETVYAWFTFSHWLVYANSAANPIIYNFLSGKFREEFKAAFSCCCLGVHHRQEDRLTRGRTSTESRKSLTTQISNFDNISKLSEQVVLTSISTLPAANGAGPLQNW

Orexin receptor type 2 [14] = biological target: T6, Orexin receptor type 2; assay: Counterscreen assay for antagonists of the orexin 1 receptor (OX1R; HCRTR1): Homogeneous Time Resolved Fluorescence (HTRF)-based cell-based dose response assay for antagonists of the orexin 2 receptor (OX2R; HCRTR2), run by assay provider.; type: functional
[15] = Trypanosoma cruzi growth suppression in host cells – NIH3T3 host cells, beta-gal luminescence, confirmation (AID 2044); type: functional, cell-based;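 further: intracellular parasites grown in NIH/3T3 mouse fibroblasts as host cells; luminescent beta-galactosidase reporter signal from transgenic T. cruzi replicating inside host cells; inhibitors lower the luminescence signal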
[16] = NIH3T3 cell viability loss – ATP luminescence, mouse fibroblasts, counter-screen, dose response (AID 2010); type: functional, cell-based;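 further: cells exposed to compound for about 90 hours before reading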
[17] = biological target: T7, High affinity choline transporter 1 (Homo sapiens, UniProt Q9GZV3); assay: human choline transporter potentiators, potency – cell-based, 10-point CRC, membrane potential dye, dose response (AID 602376); type: functional
T7 sequence (Q9GZV3 whole entry): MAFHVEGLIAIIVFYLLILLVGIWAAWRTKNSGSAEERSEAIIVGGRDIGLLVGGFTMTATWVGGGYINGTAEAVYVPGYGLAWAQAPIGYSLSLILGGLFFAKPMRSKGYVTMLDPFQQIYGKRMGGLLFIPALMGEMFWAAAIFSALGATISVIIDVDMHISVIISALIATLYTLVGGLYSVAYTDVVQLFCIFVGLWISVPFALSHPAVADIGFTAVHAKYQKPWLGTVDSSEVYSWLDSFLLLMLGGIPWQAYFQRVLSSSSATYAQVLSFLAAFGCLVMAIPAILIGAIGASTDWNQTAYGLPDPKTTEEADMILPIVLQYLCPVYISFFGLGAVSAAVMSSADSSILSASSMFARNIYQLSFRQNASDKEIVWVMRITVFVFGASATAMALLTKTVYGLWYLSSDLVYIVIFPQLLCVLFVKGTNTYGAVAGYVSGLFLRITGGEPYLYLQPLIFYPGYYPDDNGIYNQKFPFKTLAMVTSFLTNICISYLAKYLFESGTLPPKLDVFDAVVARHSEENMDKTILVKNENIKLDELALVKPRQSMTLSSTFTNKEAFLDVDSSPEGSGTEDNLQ

Sequence of Voltage-dependent T-type calcium channel subunit alpha-1H (O95180 whole entry): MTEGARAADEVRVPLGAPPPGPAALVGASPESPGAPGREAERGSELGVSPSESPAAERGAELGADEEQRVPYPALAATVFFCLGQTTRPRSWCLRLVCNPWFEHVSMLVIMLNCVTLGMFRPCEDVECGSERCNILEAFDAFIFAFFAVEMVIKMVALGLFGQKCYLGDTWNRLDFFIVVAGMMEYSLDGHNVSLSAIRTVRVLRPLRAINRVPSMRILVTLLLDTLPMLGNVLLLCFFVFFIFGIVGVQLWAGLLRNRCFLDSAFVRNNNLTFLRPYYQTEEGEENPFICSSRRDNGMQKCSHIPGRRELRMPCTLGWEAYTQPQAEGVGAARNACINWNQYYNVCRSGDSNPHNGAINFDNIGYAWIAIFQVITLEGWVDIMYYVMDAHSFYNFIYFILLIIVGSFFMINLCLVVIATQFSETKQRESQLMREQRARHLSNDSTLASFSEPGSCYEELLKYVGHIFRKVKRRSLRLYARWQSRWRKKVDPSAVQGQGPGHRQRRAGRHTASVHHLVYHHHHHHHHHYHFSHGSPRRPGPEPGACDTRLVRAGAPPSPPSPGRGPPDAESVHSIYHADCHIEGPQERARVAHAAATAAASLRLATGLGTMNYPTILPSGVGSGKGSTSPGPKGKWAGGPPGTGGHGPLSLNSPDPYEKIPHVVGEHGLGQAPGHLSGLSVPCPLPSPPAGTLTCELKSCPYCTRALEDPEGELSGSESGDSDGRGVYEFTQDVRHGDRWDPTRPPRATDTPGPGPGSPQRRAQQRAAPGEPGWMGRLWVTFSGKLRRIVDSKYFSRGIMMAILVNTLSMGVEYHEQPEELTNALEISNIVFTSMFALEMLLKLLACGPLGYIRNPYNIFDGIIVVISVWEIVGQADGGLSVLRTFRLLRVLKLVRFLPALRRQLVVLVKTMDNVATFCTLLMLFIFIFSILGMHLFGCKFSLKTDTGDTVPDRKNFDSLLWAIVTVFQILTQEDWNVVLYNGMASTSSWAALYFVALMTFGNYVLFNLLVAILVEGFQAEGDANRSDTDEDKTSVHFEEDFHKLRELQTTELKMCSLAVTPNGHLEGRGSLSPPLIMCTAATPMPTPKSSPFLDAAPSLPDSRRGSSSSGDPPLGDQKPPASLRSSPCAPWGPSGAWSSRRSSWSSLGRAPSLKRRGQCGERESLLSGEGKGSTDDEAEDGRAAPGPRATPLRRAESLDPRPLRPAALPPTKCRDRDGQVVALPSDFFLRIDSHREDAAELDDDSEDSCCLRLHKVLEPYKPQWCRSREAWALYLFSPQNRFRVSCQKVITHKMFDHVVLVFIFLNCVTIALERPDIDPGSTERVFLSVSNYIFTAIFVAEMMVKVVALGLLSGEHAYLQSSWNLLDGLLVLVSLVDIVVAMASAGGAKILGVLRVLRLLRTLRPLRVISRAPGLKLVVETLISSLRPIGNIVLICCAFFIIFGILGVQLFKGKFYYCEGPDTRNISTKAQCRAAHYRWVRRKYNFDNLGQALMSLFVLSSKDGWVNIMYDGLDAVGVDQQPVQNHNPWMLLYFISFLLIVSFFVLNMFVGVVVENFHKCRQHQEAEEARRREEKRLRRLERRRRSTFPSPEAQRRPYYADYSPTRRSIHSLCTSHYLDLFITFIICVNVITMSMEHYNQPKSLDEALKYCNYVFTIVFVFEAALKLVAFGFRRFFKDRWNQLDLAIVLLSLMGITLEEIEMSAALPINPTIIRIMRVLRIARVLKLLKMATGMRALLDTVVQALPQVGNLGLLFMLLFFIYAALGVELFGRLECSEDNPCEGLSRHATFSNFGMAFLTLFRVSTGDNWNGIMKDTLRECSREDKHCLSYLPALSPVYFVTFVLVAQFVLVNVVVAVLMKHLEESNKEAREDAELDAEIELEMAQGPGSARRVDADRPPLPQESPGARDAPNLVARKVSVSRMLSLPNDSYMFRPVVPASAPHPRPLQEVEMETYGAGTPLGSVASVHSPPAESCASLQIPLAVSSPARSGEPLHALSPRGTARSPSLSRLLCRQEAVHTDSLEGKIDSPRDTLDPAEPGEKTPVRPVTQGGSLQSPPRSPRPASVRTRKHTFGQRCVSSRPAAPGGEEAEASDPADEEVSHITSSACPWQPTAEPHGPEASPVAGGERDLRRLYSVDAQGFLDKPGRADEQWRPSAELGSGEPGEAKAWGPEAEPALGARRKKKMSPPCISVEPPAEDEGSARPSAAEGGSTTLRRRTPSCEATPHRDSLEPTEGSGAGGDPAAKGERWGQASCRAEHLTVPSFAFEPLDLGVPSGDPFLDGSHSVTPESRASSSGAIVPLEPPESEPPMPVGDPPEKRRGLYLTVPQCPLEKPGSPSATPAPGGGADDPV

Structure (SMILES)	IC50 (Caspase-3 [2])	IC50 [3]	IC50 [4]	IC50 [5]	IC50 [6]	IC50 (Caspase-3 [7])	IC50 [8]	IC50 [9]	IC50 (CHO-K1)	IC50 [10]	IC50 [11]	IC50 [12]	IC50 (Orexin receptor type 2 [13])	IC50 (Orexin receptor type 2 [14])	also measured
Cc1ccc2nc(-c3cccnc3SCC(=O)N3c4ccccc4CC3C)[nH]c2c1 (stereo not drawn)	4.22 µM (active)	2.9 µM (active)	> 100 µM (inactive)	1.56 µM (active)	6.28 µM (active)	5.3 µM (active)	5.76 µM (active)	5.66 µM (active)	–	–	–	–	–	–	EC50 [1]: 11.2 µM (active)
Fc1ccccc1COc1ccc(C(=S)N2CCCC2)cc1	9.99 µM (active)	10.9 µM (active)	17.1 µM (active)	3.21 µM (active)	1.55 µM (active)	0.742 µM (active)	1.17 µM (active)	1.64 µM (active)	–	–	–	–	–	–	AC50 (HeLa): 162 µM (active)
C=CCSC1=C(C#N)C(c2ccccc2Cl)C(C(=O)c2cccs2)C(O)(C(F)(F)F)N1 (stereo not drawn)	–	–	–	–	–	–	–	–	> 66.2 µM (inactive)	25 µM (inactive)	0.405 µM (active)	1.62 µM (active)	10.3 µM (inactive)	15.2 µM (inactive)	–
CCC(C)(C)n1nnnc1C(c1cccnc1)N1CCN(c2cccc(C(F)(F)F)c2)CC1 (stereo not drawn)	–	–	–	–	–	–	–	–	–	–	–	–	–	–	EC50 [15]: 0.101 µM (active); EC50 [16]: > 60 µM (not active); EC50 [17]: 16 µM (active)
c1ccc(N2CCN(c3ncnc4c3oc3ccccc34)CC2)cc1	–	–	–	–	–	–	–	–	> 66.3 µM (inactive)	17.7 µM (inactive)	4.71 µM (active)	12.4 µM (inactive)	> 88.8 µM (inactive)	> 50 µM (inactive)	–
